Data published in patent publication US9180115B2, “Cyclohexylamines” (Asana Biosciences, LLC, priority 2011, dated 2015).
pIC50: −log10 of the molar value.

Columns and labels:
isolated detrusor muscle = assay: In vitro assay for effect of compounds on bladder detrusor muscle (EFS-induced contractions); design: species or system guinea-pigs; conditions: cumulative concentration-response
[1] = test system: sodium current in DRG neurons; conditions: co-applied with 1 μM capsaicin, whole-cell voltage clamp; read-out: in vitro apparent affinity (IC50) for blocking sodium current in DRG neurons; cited from earlier work

Compound | EFS-induced detrusor contractions (isolated detrusor muscle) | pIC50 [1]
CCN(CC)CC(=O)Nc1c(C)cccc1C [lidocaine] | concentration-dependent inhibitions of EFS-induced detrusor contractions | –
CC[N+](CC)(CC)CC(=O)Nc1c(C)cccc1C [QX-314] | – | 4.52
